{
  "source": "patent US7794965B2",
  "about": "“Method of identifying modulators of PP2A methylase” (Signum Biosciences, Inc., priority 2002, dated 2010)",
  "key": {"tau": {"tested_on": "tau", "conditions": "for CP13 tau phosphorylation, ratio methionine-enriched / not enriched / PHF1 tau phosphorylation, ratio methionine-enriched / not enriched / TG5 total tau, ratio methionine-enriched / not enriched: B6, B12", "from_the_text": "(§1) Male C57BL/J6 mice were obtained from the Jackson Laboratories (Bar Harbor, Me.) at 4 weeks of age. Mice were fed on a vitamin sufficient or a vitamin deficient diet for 9 weeks. All of the vitamin-sufficient diets contained folate, vitamin B6, and vitamin B12. All of the vitamin deficient diets lacked these vitamins. […] Another group was fed a vitamin deficient diet that contained basal levels of methionine (Harlan Teklad TD00428). The same was true for mice on the vitamin-sufficient diet. One group was fed a diet enriched for methionine (Harlan Teklad TD98002) and another was fed standard rodent chow 5001 c (Lab Diets). The mice were allowed free access to both food and water.\nMice brains were homogenized in 10 times volume/weight buffer containing:\n62.5 mM Tris-HCl, pH 6.8, 10% (w/v) glycerol, 5% (v/v) [3-mercaptoethanol, 2.3% (w/v) SDS, 100 nM okadaic acid (OA), 1 mM phenylmethylsulfonyl fluoride, and 1 mM EDTA. This is a modified version of the buffer reported by Planel et al. [Planel, 2001 #54]. The homogenates were boiled for 5 mins and then centrifuged for 15 mins at 4° C. in a Fisher micro-centrifuge model 235A. The supernatant was then diluted 1:2 in SDS-sample buffer and loaded on a 12.5% percent SDS-PAGE gel. Gels were run at 200 V, transferred onto PVDF membrane at 100 V for 1 hr. Each membrane was blocked for 1 hr in 5% milk, followed by overnight incubation in antibodies, CP13 (1:200) and PHF1 (1:500) which recognize phosphoserine 202 and phosphoserine 396/404 respectively [Greenberg, 1992 #55; Otvos, 1994 #59] and TG5 (1:1000), which recognizes a phosphorylation independent epitope on tau [Jicha, 1997 #56]. The following day, membranes were washed 5× for 5 mins each with TBS containing tween (TBST) and then incubated with goat anti-mouse IgG horseradish peroxidase coupled secondary antibody, diluted 1:25,000 in 5% milk prepared in TBS, for 1 hr. Following the secondary antibody incubation, the membranes were washed 5× for 10 mins in TBST and developed with ECL plus (Amersham). Signal intensities of X-ray film exposures for each membrane were quantified by scanning densitometry using NIH Image.\nMice were fed on diets containing or deficient in folate, vitamin B6, and vitamin B12 as described above. Tau phosphorylation was determined in the mice by SDS-PAGE and western blotting using the procedures described above. The western blots were probed using three different tau-specific monoclonal antibodies, as discussed above.\n(§2) The effects of methionine enrichment were determined either in the presence or absence of a deficiency for folate, vitamin B6, and vitamin B12.\nRatios are given for values obtained from mice fed diets enriched with methionine divided by values obtained from mice fed diets not enriched for methionine.\nFeeding and assays were performed as described above. Hcy, total plasma homocysteine; SAM and SAH values measured in brain homogenates. CP13 and PHF1, tau phosphorylation and TG5, total tau (see data below) body, brain, and heart weights (see data in examples above)."}, "[1]": {"conditions": "for Hcy, total plasma homocysteine, ratio methionine-enriched / not enriched / SAH in brain homogenates, ratio methionine-enriched / not enriched / SAM in brain homogenates, ratio methionine-enriched / not enriched: B6, B12", "from_the_text": "as §1\nSAM and SAH levels were measured by high performance liquid chromatography (HPLC) according to the method described by Fu et al. in “Interrelations between plasma homocysteine and intracellular S-adenosylhomocysteine;” Biochem Biophys Res Commun 271: 47-53 (2000), which is incorporated herein by reference in its entirety particularly in parts pertinent to HPLC assays of SAM and SAH.\nSamples of mouse brain were weighed and homogenized in two times weight/volume of 0.5 HCIO4. Samples were centrifuged at 12,500 g for 5 min and the supernatant was filtered through a 0.22 mm membrane. Aliquots of 25 ml were injected and run on a hypersil […] particle size, c18 (ODS), 250×4.6 mm (Phenomenex) column with an isocratic elution at 1.3 ml/min. The mobile phase consisted of 0.10 mM sodium acetate, 2.4 mM heptanesulfonic acid, 4.2% acetonitrile, and 50 mM sodium perchlorate. The pH was adjusted to 3.5 with 70% perchloric acid.\nStandards were run at five different concentrations: 10,000, 5,000, 2,000, 1,000, and 500 pM for SAM, and 10,000, 5,000, 1,000, 100, and 50 μM for SAH. Linear curves, obtained from the SAM and SAH standards, were used to calculate concentrations of SAM and SAH in the brain homogenates.\nHomocysteine was measured by HPLC in serum samples reduced with tri-n-butylphosphine.\nSerum was prepared from whole blood, which was allowed to clot for 30 min on ice and then centrifuged. Samples were aliquoted, snap frozen and stored at −80° C. for analysis. For analysis, 150 ml of serum was thawed and reduced in a mixture containing 50 ml of 0.1 M potassium borate, 2 mM EDTA, pH 9.5, 0.2 mM mercaptopropionylglycine, and 20 ml of 100 ml/I of tri-n-butylphosphine in dimethylformamide. The reduction was allowed to proceed for 30 min on ice after which samples were mixed with 125 ml of 0.6 M perchloric acid containing 1 mM EDTA and allowed to react at room temperature for 10 min, and then centrifuged at 15500 g for 10 min. 100 ml was withdrawn from the middle of the supernatant and mixed with 200 ml of 0.2M potassium borate, pH 10.5, containing 5 mM EDTA. 100 ml of 1.0 gm Ammonium 7-fluorobenzo-2-oxa-1,3-diazole-4-sulphonate/I.OL 0.2M potassium borate, pH 9.5, was added and the mixture incubated at 60° C. for 60 min. Samples were cooled and then analyzed using HPLC. 10 ml of derivatized sample was used for each injection. Buffer A (0.1 M acetate buffer, pH 4.0, containing 20 ml/I methanol) and Buffer B (0.1 M acetate buffer, pH 6.0, containing 50 ml/I methanol) were run at a flow rate of 1.0 ml/min from A to B over 12.5 min then 2.5 min of B, a 3.0 min gradient back to A and 2.0 min A before next injection. A standard was also analyzed to quantify values of homocysteine. Mercaptopropionylglycine was added to the reduction buffer as an internal standard to monitor any potential loss during reduction.\nMice were fed on diets containing or deficient in folate, vitamin B6 and B12 as set out above. SAM, SAH and Hcy were determined as described above.\nas §2"}, "[2]": {"tested_on": "PP2A methylation in SH-SY5Y neuroblastoma cells", "experiment": "PP2A methylation in cultured SH-SY5Y cells, western blotting with antibodies 6A3 (total) and 4D9 (methylated)", "format": "cell-based", "conditions": "homocysteine 0, 25, 50, 100, and 200 mM, three hours", "procedure": "SH-SY5Y cells were propagated in a 1:1 mixture of Eagle's Minimum Essential Medium and Ham's F12 medium supplemented with 10% Fetal Bovine Serum, Penicillin (100 units/ml)/Streptomycin ([…]) and 2 mM L-Glutamine. The flasks were incubated at 37° C. (5% CO2). Media was changed every 4-6 days until the cells were confluent. On confluency, cells were treated with 25-200 mM homocysteine for 3 hours. […] Each membrane was blocked for 1 hr in 5% milk, followed by an hour incubation in antibodies, 6A3 (1:50) and 4D9 (1:25) which recognize total and methylated PP2A, respectively.\nInhibition of PP2A methylation by homocysteine was determined in cultured cells. Total PP2A and methylated PP2A was determined by western blotting in SH-SY5Y neuroblastoma cells. Homocysteine was added to confluent SH-SY5Y cells to concentrations of […]. Three hours after adding homocysteine the cells were harvested into cold PBS, mixed with SDS sample buffer, and then analyzed by SDS-PAGE and western blotting. To determine total PP2A, the blots were probed with monoclonal antibody 6A3, which recognizes total PP2A. To determine methylated PP2A the blots were probed with monoclonal antibody 4D9, which recognizes methylated but not unmethylated PP2A."}, "cultured human neurons": {"tested_on": "cultured human neurons", "conditions": "Merrick, 1997; cited from earlier work"}, "methylation of PP2A": {"target": "methylation of PP2A (Homo sapiens, UniProt P67775)", "sequence (P67775 whole entry)": "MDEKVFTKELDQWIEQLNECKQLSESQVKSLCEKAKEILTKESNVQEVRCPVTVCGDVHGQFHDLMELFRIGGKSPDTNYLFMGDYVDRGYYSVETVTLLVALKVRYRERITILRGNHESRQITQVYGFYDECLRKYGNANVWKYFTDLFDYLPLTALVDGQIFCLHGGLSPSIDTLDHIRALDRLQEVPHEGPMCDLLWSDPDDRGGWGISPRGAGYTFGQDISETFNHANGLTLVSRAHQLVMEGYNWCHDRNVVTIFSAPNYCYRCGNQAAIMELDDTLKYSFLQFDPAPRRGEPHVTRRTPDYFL", "conditions": "cited from earlier work"}, "[3]": {"target": "PP2A phosphatase activity (Homo sapiens, UniProt P67775)", "sequence (P67775 whole entry)": "as above", "conditions": "cited from earlier work"}, "[4]": {"conditions": "excess methionine added to vitamin-deficient diets"}},
  "note": "Where two headings read alike, the source gives them in different places.",
  "data": [
    {"smiles": "CSCC[C@H](N)C(=O)O", "note": "[methionine]", "values": [
      {"measurement": "CP13 tau phosphorylation, ratio methionine-enriched / not enriched", "setting": "tau; diets with folate", "result": 1.1},
      {"measurement": "PHF1 tau phosphorylation, ratio methionine-enriched / not enriched", "setting": "tau; diets with folate", "result": 1.2},
      {"measurement": "TG5 total tau, ratio methionine-enriched / not enriched", "setting": "tau; diets with folate", "result": 1.2},
      {"measurement": "CP13 tau phosphorylation, ratio methionine-enriched / not enriched", "setting": "tau; diets without folate", "result": 1},
      {"measurement": "PHF1 tau phosphorylation, ratio methionine-enriched / not enriched", "setting": "tau; diets without folate", "result": 0.9},
      {"measurement": "TG5 total tau, ratio methionine-enriched / not enriched", "setting": "tau; diets without folate", "result": 1},
      {"measurement": "effect on tau hyperphosphorylation", "setting": "tau; [4]", "result": "did not have a sizeable significant effect"},
      {"measurement": "Hcy, total plasma homocysteine, ratio methionine-enriched / not enriched", "setting": "[1]; diets with folate", "result": 1.9},
      {"measurement": "SAH in brain homogenates, ratio methionine-enriched / not enriched", "setting": "[1]; diets with folate", "result": 0.8},
      {"measurement": "SAM in brain homogenates, ratio methionine-enriched / not enriched", "setting": "[1]; diets with folate", "result": 0.9},
      {"measurement": "Hcy, total plasma homocysteine, ratio methionine-enriched / not enriched", "setting": "[1]; diets without folate", "result": 0.9},
      {"measurement": "SAH in brain homogenates, ratio methionine-enriched / not enriched", "setting": "[1]; diets without folate", "result": 1.1},
      {"measurement": "SAM in brain homogenates, ratio methionine-enriched / not enriched", "setting": "[1]; diets without folate", "result": 1.2},
      {"measurement": "change in plasma Hcy", "setting": "[1]; excess methionine added to the normal diet", "result": "approximately two-fold increase"},
      {"measurement": "effect on methylation metabolism", "setting": "[1]; [4]", "result": "did not have a sizeable significant effect"}
    ]},
    {"smiles": "N[C@@H](CCS)C(=O)O", "note": "[homocysteine]", "values": [
      {"measurement": "Total PP2A (antibody 6A3)", "setting": "[2]", "result": "remained much the same"},
      {"measurement": "level of methylated PP2A (antibody 4D9)", "setting": "[2]", "result": "declined dramatically"}
    ]},
    {"smiles": "C=C1[C@@H](O)[C@@H]2O[C@]3(CC[C@H](/C=C/[C@@H](C)[C@@H]4CC(C)=C[C@@]5(O[C@H](C[C@@](C)(O)C(=O)O)CC[C@H]5O)O4)O3)CC[C@H]2O[C@@H]1[C@@H](O)C[C@H](C)[C@H]1O[C@@]2(CCCCO2)CC[C@H]1C", "note": "[Okadaic acid]", "values": [
      {"measurement": "effect on tau and microtubules in cultured human neurons", "setting": "cultured human neurons", "result": "tau hyperphosphorylation, reduced binding of tau to MTs, MT depolymerization, and axonal degeneration"},
      {"measurement": "inhibition of methylation of PP2A", "setting": "methylation of PP2A", "result": "potent inhibitor"},
      {"measurement": "inhibition of PP2A phosphatase activity", "setting": "[3]", "result": "potent inhibitor"}
    ]}
  ]
}
